Assay results: patent US11076594B2, “Pyrazolone compound or salt thereof, preparation method therefor, herbicide composition and use thereof” (QINGDAO KINGAGROOT CHEMICAL COMPOUNDS CO., LTD., priority 2015, dated 2021)

Assays:
Type in all cases: in vivo
rice = assay: post-emergence stage experiment, crop (Table 1); conditions: post-emergence spray at 4-5 leaf stage, 250 g/ha active ingredient with 450 kg/ha water, rated after 3 weeks in greenhouse
Outline: (§1)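 Seeds were sown in pots, covered with 0.5-2 cm soil and grown in a greenhouse. At the 4-5 leaf stage, plants were sprayed with the test compound formulated in acetone, Tween 80 and water. Fresh weight control was rated after 3 weeks.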

wheat = assay: post-emergence stage experiment, crop (Table 1); conditions: post-emergence spray at 4-5 leaf stage, 250 g/ha active ingredient with 450 kg/ha water, rated after 3 weeks in greenhouse
Outline: as §1

alopecurus japonicas = assay: wheat field resistant weed control, greenhouse spray at 4 leaf stage; set-up: key: Level 10: completely dead; Level 9: above 95% growth control rate; Level 8: above 90% growth control rate; Level 7: above 80% growth control rate; Level 6: above 70% growth control rate; Level 5: above 60% growth control rate; Level 4: above 50% growth control rate; Level 3: above 20% growth control rate; Level 2: 5%-20% growth control rate; Level 1: below 5% growth control rate; conditions: sprayed at 4 leaf stage, 4 weeks after treatment, resistant to ALS and ACCase inhibitor herbicides
Outline: (§2)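 Compounds in acetone were mixed with methyl oleate emulsion, diluted with water and applied with a sprayer to greenhouse plants at the 4 leaf stage. Growth control, expressed as fresh weight control rate, was assessed after 4 weeks of further culture.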

crab grass = assay: weed control effect in post-emergence stage (Table 1); set-up: key: Level 10: completely dead; Level 9: above 95% growth control rate; Level 8: above 90% growth control rate; Level 7: above 80% growth control rate; Level 6: above 70% growth control rate; Level 5: above 60% growth control rate; Level 4: above 50% growth control rate; Level 3: above 20% growth control rate; Level 2: 5%-20% growth control rate; Level 1: below 5% growth control rate; conditions: post-emergence spray at 4-5 leaf stage, 250 g/ha active ingredient with 450 kg/ha water, rated after 3 weeks in greenhouse
Outline: as §1

rice (japonica rice) = assay: transplanted rice safety evaluation; conditions: 125 g/ha ai; treated 5 days after transplantation; 21 days after treatment
Description: The activity level standard of harmful plant destruction (i.e. growth control rate) is as follows: In addition, the rice field soil that loaded into the 1/1,000,000 ha pot was leveled to keep water storage at 3-4 cm depth. The 3 leaf stage rice (japonica rice) was transplanted at 3 cm of transplanting depth the next day. The compound of the present invention was treated by the same way after 5 days of transplantation. The fertility condition of echinochloa, scirpus juncoides, bidens tripartite and sagittaria trifolia 14 days after the treatment of the compound of the invention and the fertility condition of rice 21 days after the treatment of the compound of the invention respectively with the naked eye.

corn = assay: post-emergence stage experiment, crop (Table 1); conditions: post-emergence spray at 4-5 leaf stage, 250 g/ha active ingredient with 450 kg/ha water, rated after 3 weeks in greenhouse
Outline: as §1

shepherd's purse = assay: wheat field resistant broadleaf weed control, greenhouse spray at 4 leaf stage; set-up: key: Level 10: completely dead; Level 9: above 95% growth control rate; Level 8: above 90% growth control rate; Level 7: above 80% growth control rate; Level 6: above 70% growth control rate; Level 5: above 60% growth control rate; Level 4: above 50% growth control rate; Level 3: above 20% growth control rate; Level 2: 5%-20% growth control rate; Level 1: below 5% growth control rate; conditions: 250 g/ha of the active substance; 4 weeks after treatment; ALS inhibitor resistant
Outline: as §2

chickweed = assay: as above; set-up: key: Level 10: completely dead; Level 9: above 95% growth control rate; Level 8: above 90% growth control rate; Level 7: above 80% growth control rate; Level 6: above 70% growth control rate; Level 5: above 60% growth control rate; Level 4: above 50% growth control rate; Level 3: above 20% growth control rate; Level 2: 5%-20% growth control rate; Level 1: below 5% growth control rate; conditions: 250 g/ha of the active substance; 4 weeks after treatment; ALS inhibitor resistant
Outline: as §2

corn gromwell = assay: as above; set-up: key: Level 10: completely dead; Level 9: above 95% growth control rate; Level 8: above 90% growth control rate; Level 7: above 80% growth control rate; Level 6: above 70% growth control rate; Level 5: above 60% growth control rate; Level 4: above 50% growth control rate; Level 3: above 20% growth control rate; Level 2: 5%-20% growth control rate; Level 1: below 5% growth control rate; conditions: 250 g/ha of the active substance; 4 weeks after treatment; ALS inhibitor resistant
Outline: as §2

flixweed = assay: as above; set-up: key: Level 10: completely dead; Level 9: above 95% growth control rate; Level 8: above 90% growth control rate; Level 7: above 80% growth control rate; Level 6: above 70% growth control rate; Level 5: above 60% growth control rate; Level 4: above 50% growth control rate; Level 3: above 20% growth control rate; Level 2: 5%-20% growth control rate; Level 1: below 5% growth control rate; conditions: 250 g/ha of the active substance; 4 weeks after treatment; ALS inhibitor resistant
Outline: as §2

| effect on crop, Wheat (level) (wheat) | Structure (SMILES) | effect on crop, Rice (level) (rice) | Alopecurus japonicas weed controlling effect (activity level) (alopecurus japonicas; 1 g/mu) | Alopecurus japonicas weed controlling effect (activity level) (alopecurus japonicas; 2 g/mu) | Alopecurus japonicas weed controlling effect (activity level) (alopecurus japonicas; 4 g/mu) | Alopecurus japonicas weed controlling effect (activity level) (alopecurus japonicas; 8 g/mu) | weed control effect, Crab grass (level) (crab grass) | Rice (activity level, transplanted rice safety) (rice (japonica rice)) | effect on crop, Corn (level) (corn) | shepherd's purse weed controlling effect (activity level) (shepherd's purse) | chickweed weed controlling effect (activity level) (chickweed) | corn gromwell weed controlling effect (activity level) (corn gromwell) | flixweed weed controlling effect (activity level) (flixweed) |
| --- | --- | --- | --- | --- | --- | --- | --- | --- | --- | --- | --- | --- | --- |
| 0 | CCOc1c(C(=O)Oc2c(C(=O)c3ccc(C(F)(F)F)c(N4CCCCC4=O)c3Cl)c(C)nn2C)cnn1C [Compound 037] | 3 (Level 3: above 20% growth control rate) |  |  |  |  | 6 (Level 6: above 70% growth control rate) | 2 (Level 2: 5%-20% growth control rate) | 0 | 10 | 10 | 10 | 10 |
| 0 | CCOc1c(C(=O)Oc2c(C(=O)c3ccc(C(F)(F)F)c(-n4cc(C)cn4)c3Cl)cnn2C)cnn1C [Compound 081] | 3 (Level 3: above 20% growth control rate) |  |  |  |  | 7 (Level 7: above 80% growth control rate) | 1 (Level 1: below 5% growth control rate) | 2 (Level 2: 5%-20% growth control rate) | 10 | 10 | 10 | 10 |
| 0 | CCOc1c(C(=O)Oc2c(C(=O)c3ccc(C(F)(F)F)c(-n4cccn4)c3Cl)c(C)nn2C)cnn1C [Compound 071] | 1 (Level 1: below 5% growth control rate) |  |  |  |  | 4 (Level 4: above 50% growth control rate) | 0 | 1 (Level 1: below 5% growth control rate) | 10 | 10 | 10 | 10 |

More lines, now with the values behind:

| Structure (SMILES) | effect on crop, Wheat (level) (wheat) | effect on crop, Rice (level) (rice) | Alopecurus japonicas weed controlling effect (activity level) (alopecurus japonicas; 1 g/mu) | Alopecurus japonicas weed controlling effect (activity level) (alopecurus japonicas; 2 g/mu) | Alopecurus japonicas weed controlling effect (activity level) (alopecurus japonicas; 4 g/mu) | Alopecurus japonicas weed controlling effect (activity level) (alopecurus japonicas; 8 g/mu) | weed control effect, Crab grass (level) (crab grass) | Rice (activity level, transplanted rice safety) (rice (japonica rice)) | effect on crop, Corn (level) (corn) | shepherd's purse weed controlling effect (activity level) (shepherd's purse) | chickweed weed controlling effect (activity level) (chickweed) | corn gromwell weed controlling effect (activity level) (corn gromwell) | flixweed weed controlling effect (activity level) (flixweed) |
| --- | --- | --- | --- | --- | --- | --- | --- | --- | --- | --- | --- | --- | --- |
| Cc1nn(C)c(O)c1C(=O)c1ccc(C(F)(F)F)c(N2CCCCC2=O)c1Cl [Compound 035] | 0 | 6 (Level 6: above 70% growth control rate) | 0 | 2 (Level 2: 5%-20% growth control rate) | 6 (Level 6: above 70% growth control rate) | 6 (Level 6: above 70% growth control rate) | 8 (Level 8: above 90% growth control rate) | 0 |  |  |  |  |  |
| CCOc1c(C(=O)Oc2c(C(=O)c3ccc(C(F)(F)F)c(-n4cc(C)cn4)c3Cl)c(C3CC3)nn2C)cnn1C [Compound 092] | 1 (Level 1: below 5% growth control rate) | 2 (Level 2: 5%-20% growth control rate) |  |  |  |  | 3 (Level 3: above 20% growth control rate) | 0 | 2 (Level 2: 5%-20% growth control rate) | 10 | 10 | 10 | 10 |
| Cc1nn(C)cc1C(=O)Oc1c(C(=O)c2ccc(C(F)(F)F)c(N3CCCC3=O)c2Cl)c(C)nn1C [Compound 023] | 4 (Level 4: above 50% growth control rate) | 4 (Level 4: above 50% growth control rate) | 1 (Level 1: below 5% growth control rate) | 6 (Level 6: above 70% growth control rate) | 8 (Level 8: above 90% growth control rate) | 10 | 10 | 0 | 5 (Level 5: above 60% growth control rate) |  |  |  |  |
| CCn1nc(C)c(C(=O)c2ccc(C(F)(F)F)c(-n3cccn3)c2Cl)c1OC(=O)c1cn(C)nc1C [Compound 129] | 1 (Level 1: below 5% growth control rate) | 6 (Level 6: above 70% growth control rate) |  |  |  |  | 0 | 2 (Level 2: 5%-20% growth control rate) | 3 (Level 3: above 20% growth control rate) | 10 | 10 | 10 | 10 |
